The record followed here is patent publication US11718622B2, “Heterocyclic adenosine receptor antagonists” (Exelixis, Inc., priority 2020, dated 2023).

Test [1] deals with Adenosine A2a (ADORA2A) receptor (Homo sapiens (Human), UniProt P29274). Kind of test: ADORA2A Receptor Binding Assay. The following applies: radioligand binding, membrane stock. The procedure:
ADORA1A and ADORA2A Receptor Binding Assay
2 μL of each compound (test compounds, high control compound, low control compound) was transferred into individual wells of an assay plate. Also to each individual well, 98 μL of Adenosine A1a membrane stock (for ADORA1A Receptor Binding Assay) or Adenosine A2a membrane stock (for ADORA2A Receptor Binding Assay) was dispensed, followed by 100 μL of radio-labeled ligand. Plates were then sealed, and incubated at room temperature for 1 hour (for ADORA1A Receptor Binding Assay) or 2 hours (for ADORA2A Receptor Binding Assay). Unifilter-96 GF/C filter plates were pre-soaked with 50 μL of 0.3% PEI per well for at least 30 min at room temperature. When binding assays were completed, reaction mixtures were filtered through GF/C plates using a Perkin Elmer Filtermate Harvester, and then each plate was washed 4× with cold wash buffer. Filter plates were then dried for 1 hour at 50° C. After drying, the bottom of the filter plate wells was sealed using Perkin Elmer Unifilter-96 backing seal tape. 50 μL of Perkin Elmer Microscint 20 cocktail was then added, and the top of the filter plate was then sealed using Perkin Elmer TopSeal-A sealing film. ^3H trapped on the filter was counted using a Perkin Elmer MicroBeta2 Reader. Data analysis was performed using GraphPad Prism 5 software, and the “Inhibition [% Control]” was calculated using the following equation: % Inh=(1−Background subtracted Assay value/Background subtracted HC value)*100.

In test [2] the target is Adenosine A2B (ADORA2B) receptor (Homo sapiens (Human), UniProt P29275). Kind of test: ADORA2B Receptor Binding Assay. The following applies: radioligand binding, membrane stock. The procedure:
ADORA2B Receptor Binding Assay
100 μL of Adenosine A2B membrane stock was dispensed into individual wells of an assay plate. 1 μL of each compound (test compounds, high control compound, low control compound) was then transferred into individual wells, followed by 100 μL of radio-labeled ligand. Plates were then sealed, and incubated at room temperature for 1 hour. Unifilter-96 GF/C filter plates were pre-soaked with 50 μL of 0.5% BSA per well for at least 30 min at room temperature. When binding assays were completed, reaction mixtures were filtered through GF/C plates using a Perkin Elmer Filtermate Harvester, and then each plate was washed 4× with cold wash buffer. Filter plates were then dried for 1 hour at 50° C. After drying, the bottom of the filter plate wells was sealed using Perkin Elmer Unifilter-96 backing seal tape. 50 μL of Perkin Elmer Microscint 20 cocktail was then added, and the top of the filter plate was then sealed using Perkin Elmer TopSeal-A sealing film. ^3H trapped on the filter was counted using a Perkin Elmer MicroBeta2 Reader. Data analysis was performed using GraphPad Prism 5 software, and the “Inhibition[% Control]” was calculated using the following equation: % Inh=(1−Background subtracted Assay value/Background subtracted HC value)*100.

By IC50 is commonly meant the midpoint of a concentration-inhibition curve. A higher IC50 goes with weaker potency.

Some results are limits rather than exact numbers.

Sequence of Adenosine A2B (ADORA2B) receptor (P29275 whole entry): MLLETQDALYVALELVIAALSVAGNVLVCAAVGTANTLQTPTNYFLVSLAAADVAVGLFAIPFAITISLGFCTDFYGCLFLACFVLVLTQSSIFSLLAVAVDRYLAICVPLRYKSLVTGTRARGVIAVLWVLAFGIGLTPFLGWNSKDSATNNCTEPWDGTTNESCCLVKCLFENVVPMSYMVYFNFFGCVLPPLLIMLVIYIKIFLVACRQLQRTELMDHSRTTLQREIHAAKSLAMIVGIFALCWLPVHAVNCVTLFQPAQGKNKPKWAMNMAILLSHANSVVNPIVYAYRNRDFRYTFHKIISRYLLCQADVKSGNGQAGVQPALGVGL
Sequence of Adenosine A2a (ADORA2A) receptor (P29274 whole entry): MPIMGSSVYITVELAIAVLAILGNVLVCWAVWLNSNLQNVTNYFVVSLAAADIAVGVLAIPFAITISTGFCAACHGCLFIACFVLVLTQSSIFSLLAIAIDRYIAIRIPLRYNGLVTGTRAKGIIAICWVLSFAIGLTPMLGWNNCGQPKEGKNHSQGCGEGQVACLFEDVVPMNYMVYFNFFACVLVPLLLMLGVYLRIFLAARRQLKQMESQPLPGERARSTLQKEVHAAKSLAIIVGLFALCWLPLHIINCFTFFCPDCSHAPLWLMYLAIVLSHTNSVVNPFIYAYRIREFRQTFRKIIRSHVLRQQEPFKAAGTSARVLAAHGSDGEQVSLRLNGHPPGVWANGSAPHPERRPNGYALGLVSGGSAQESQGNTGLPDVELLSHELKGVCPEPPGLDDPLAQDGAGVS

Consider `Cc1nc2cc(NC(=O)C3CC3)nc(-c3ccc(S(C)(=O)=O)cc3)n2n1` [Compound 99, A-[2-methyl-5-(4-methylsulfonylphenyl)-[1,2,4]triazolo[1,5-c]pyrimidin-7-yl]cyclopropanecarboxamide], for which the IC50 in test [1] and in test [2] was more than 1 µM in each case.
Take `COc1ccc(-c2nc(NC(C)=O)cc3nc(C)nn23)cc1` [Compound 113, N-[5-(4-methoxyphenyl)-2-methyl-[1,2,4]triazolo[1,5-c]pyrimidin-7-yl]acetamide]: the IC50 in test [1] and in test [2] was 0.1 to 1 µM each time.
Take `Cc1ccc(-c2nc3[nH]c(C(C)(C)O)cc3c3nc(C(F)(F)F)nn23)o1` [Compound 147, 2-[7-(5-methylfuran-2-yl)-4-(trifluoromethyl)-3,5,6,8,10-pentazatricyclo[7.3.0.0^2,6]dodeca-1(9),2,4,7,11-pentaen-11-yl]propan-2-ol]: the IC50 in test [1] and in test [2] was less than 0.01 µM throughout.
For `Cc1nc2c(C(N)=O)c(N)nc(-c3ccc(C)o3)n2n1` [Compound 32, 7-amino-2-methyl-5-(5-methylfuran-2-yl)-[1,2,4]triazolo[1,5-c]pyrimidine-8-carboxamide], the half-inhibitory concentration (IC50) in test [1] and in test [2] was 0.1 to 1 µM each time.
For `CC(=O)Nc1cc2nc(C(F)(F)F)nn2c(-c2ccco2)n1` [Compound 59, N-[5-(furan-2-yl)-2-(trifluoromethyl)-[1,2,4]triazolo[1,5-c]pyrimidin-7-yl]acetamide], the IC50 in test [1] is less than 0.01 µM; in test [2], 0.01 to 0.1 µM.
As for `CC(=O)Nc1cc2nc(C3CN(C)C3)nn2c(-c2ccco2)n1` [Compound 151, N-[5-(furan-2-yl)-2-(1-methylazetidin-3-yl)-[1,2,4]triazolo[1,5-c]pyrimidin-7-yl]acetamide], the IC50 in test [1] was 0.01 to 0.1 µM; in test [2] it was more than 1 µM.
On the same counts, the results for `Cc1nc2c(Cl)c(N)nc(-c3ccc(C)s3)n2n1` [Compound 40, 8-chloro-2-methyl-5-(5-methylthiophen-2-yl)-[1,2,4]triazolo[1,5-c]pyrimidin-7-amine] are less than 0.01 µM and less than 0.01 µM.
On the same counts, the results for `CC(=O)Nc1cn2nc(C)nc2c(-c2ccc(C)o2)n1` [Compound 174, N-[2-methyl-8-(5-methylfuran-2-yl)-[1,2,4]triazolo[1,5-a]pyrazin-6-yl]acetamide] are less than 0.01 µM and less than 0.01 µM.
Take `Cc1nc2cc(NC(=O)[C@@H]3CCCN3)nc(-c3ccc(C)o3)n2n1` [Compound 9, (2S)-N-[2-methyl-5-(5-methylfuran-2-yl)-[1,2,4]triazolo[1,5-c]pyrimidin-7-yl]pyrrolidine-2-carboxamide]: in test [1], the IC50 was 0.01 to 0.1 µM.
In the case of `Cc1nc2cc(NC(N)=O)nc(-c3ccco3)n2n1` [Compound 152, [5-(furan-2-yl)-2-methyl-[1,2,4]triazolo[1,5-c]pyrimidin-7-yl]urea], the half-maximal inhibitory concentration (IC50) in test [1] and in test [2] was 0.01 to 0.1 µM in each case.
Take `Cc1cc2c(nc(-c3ccc(C)o3)n3nc(C(C)C)nc23)[nH]1` [Compound 75, 11-methyl-7-(5-methylfuran-2-yl)-4-propan-2-yl-3,5,6,8,10-pentazatricyclo[7.3.0.0^2,6]dodeca-1(9),2,4,7,11-pentaene]: the IC50 was less than 0.01 µM in test [1] and 0.01 to 0.1 µM in test [2].
For `Cc1ccc(-c2nc(NC(=O)C3CC3)cc3nc(C4COC4)nn23)o1` [Compound 110, N-[5-(5-methylfuran-2-yl)-2-(oxetan-3-yl)-[1,2,4]triazolo[1,5-c]pyrimidin-7-yl]cyclopropanecarboxamide] the same measures were less than 0.01 µM and 0.01 to 0.1 µM.
For `Cc1ccc(-c2nc(NC(=O)C3CC3)cn3cc(CF)nc23)o1` [Compound 210, N-[2-(fluoromethyl)-8-(5-methylfuran-2-yl)imidazo[1,2-a]pyrazin-6-yl]cyclopropanecarboxamide] the same measures were less than 0.01 µM and 0.01 to 0.1 µM.
With `CC(=O)Nc1cc2nc(C3CNC3)nn2c(-c2ccc(C)o2)n1` [Compound 150, N-[2-(azetidin-3-yl)-5-(5-methylfuran-2-yl)-[1,2,4]triazolo[1,5-c]pyrimidin-7-yl]acetamide], the IC50 in test [1] is 0.1 to 1 µM; in test [2], more than 1 µM.
Regarding `CCCC(=O)Nc1cn2cc(C)nc2c(-c2ccco2)n1` [Compound 222, N-[8-(furan-2-yl)-2-methylimidazo[1,2-a]pyrazin-6-yl]butanamide], the values for the IC50 in test [1] and in test [2] were 0.01 to 0.1 µM and 0.1 to 1 µM, respectively.
For `Cc1nc2c3cc(C(C)(C)O)[nH]c3nc(-c3ccc(C)o3)n2n1` [Compound 134, 2-[4-methyl-7-(5-methylfuran-2-yl)-3,5,6,8,10-pentazatricyclo[7.3.0.0^2,6]dodeca-1(9),2,4,7,11-pentaen-11-yl]propan-2-ol] the same measures were less than 0.01 µM and less than 0.01 µM.
Turning to `Cc1nc2cc(NC(=O)C3CC3)nc(-c3ccc(S(=O)(=O)N(C)C)cc3)n2n1` [Compound 116, N-[5-[4-(dimethylsulfamoyl)phenyl]-2-methyl-[1,2,4]triazolo[1,5-c]pyrimidin-7-yl]cyclopropanecarboxamide], the IC50 in test [1] and in test [2] was more than 1 µM in each case.
In the case of `Cc1nc2c(Cl)c(N)nc(-c3ccc(F)c(F)c3)n2n1` [Compound 141, 8-chloro-5-(3,4-difluorophenyl)-2-methyl-[1,2,4]triazolo[1,5-c]pyrimidin-7-amine], the IC50 was 0.01 to 0.1 µM in test [1] and 0.1 to 1 µM in test [2].
For `Nc1nc(-c2ccccc2)c2nc(C(F)(F)F)cn2c1Cl` [Compound 204, 5-chloro-8-phenyl-2-(trifluoromethyl)imidazo[1,2-a]pyrazin-6-amine] the same measures were 0.01 to 0.1 µM and 0.01 to 0.1 µM.
For `CC(=O)Nc1cc2nc(C3CCC3)nn2c(-c2ccc(C)o2)n1` [Compound 63, N-[2-cyclobutyl-5-(5-methylfuran-2-yl)-[1,2,4]triazolo[1,5-c]pyrimidin-7-yl]acetamide] the same measures were less than 0.01 µM and 0.01 to 0.1 µM.
For `CCOC(=O)Nc1cn2cc(C)nc2c(-c2ccco2)n1` [Compound 219, ethyl N-[8-(furan-2-yl)-2-methylimidazo[1,2-a]pyrazin-6-yl]carbamate] the same measures were 0.01 to 0.1 µM and 0.1 to 1 µM.
As to `Cc1ccc(-c2nc(NC(=O)C3CC3)cn3cc(C(C)C)nc23)o1` [Compound 215, N-[8-(5-methylfuran-2-yl)-2-propan-2-ylimidazo[1,2-a]pyrazin-6-yl]cyclopropanecarboxamide], the IC50 was less than 0.01 µM in test [1] and 0.01 to 0.1 µM in test [2].
Turning to `Cc1cn2c(Br)c(N)nc(-c3ccc(F)cc3)c2n1` [Compound 206, 5-bromo-8-(4-fluorophenyl)-2-methylimidazo[1,2-a]pyrazin-6-amine], the IC50 in test [1] and in test [2] was 0.1 to 1 µM in each case.
Turning to `CC(=O)Nc1cc2nc(C)nn2c(-c2ccc(Br)o2)n1` [Compound 90, N-[5-(5-bromofuran-2-yl)-2-methyl-[1,2,4]triazolo[1,5-c]pyrimidin-7-yl]acetamide], the IC50 in test [1] and in test [2] was less than 0.01 µM throughout.
In turn, `Cc1ccc(-c2nc(N)cn3ccnc23)o1` [Compound 191, 8-(5-methylfuran-2-yl)imidazo[1,2-a]pyrazin-6-amine] displayed an IC50 in test [1] of 0.1 to 1 µM.
On to `CCOC(=O)c1cn2cc(NC(=O)C3CC3)nc(-c3ccc(C)o3)c2n1` [Compound 193, ethyl 6-(cyclopropanecarbonylamino)-8-(5-methylfuran-2-yl)imidazo[1,2-a]pyrazine-2-carboxylate], for which the IC50 in test [1] lay in the range of 0.01 to 0.1 µM.
On the same count and under the same terms, under `Cc1ccc(-c2nc(NC(=O)C3CC3)cn3cc(C(=O)O)nc23)o1` [Compound 194, 6-(cyclopropanecarbonylamino)-8-(5-methylfuran-2-yl)imidazo[1,2-a]pyrazine-2-carboxylic acid] stands more than 1 µM.
For `Cc1nc2cc(NC(=O)[C@H]3CCCN3)nc(-c3ccc(C)o3)n2n1` [Compound 17, (2R)-N-[2-methyl-5-(5-methylfuran-2-yl)-[1,2,4]triazolo[1,5-c]pyrimidin-7-yl]pyrrolidine-2-carboxamide], the IC50 in test [1] is less than 0.01 µM.
`Cc1nc2c(Br)c(NC(=O)C3CC3)nc(-c3ccco3)n2n1` [Compound 31, N-[8-bromo-5-(furan-2-yl)-2-methyl-[1,2,4]triazolo[1,5-c]pyrimidin-7-yl]cyclopropanecarboxamide] yielded an IC50 in test [1] of 0.01 to 0.1 µM.
